Assay results: patent publication US6825230B2, “Spiro and dispiro 1,2,4-trixolane antimalarials” (Medicines for Malaria Venture MMV, priority 2002, dated 2004)
In brackets after ≈: the same amount, converted by molar mass.

Assays:
[1] = tested on: chloroquine-resistant K1 strain of P. falciparum; experiment: In vitro antimalarial semiautomated microdilution assay ([3H]-hypoxanthine incorporation), K1 strain; format: cell-based, Plasmodium falciparum; details: Plasmodium falciparum, K1, 72 h, read-out: IC50 (ng/ml) K1, chloroquine-resistant K1 strain, 72 h incubation
Procedure, shortened: (§1)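 IC50 values come from Logit regression of [3H]-hypoxanthine uptake data. Parasites were intraerythrocytic P. falciparum forms taken from asynchronous stock cultures and tested by semiautomated microdilution.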

[2] = tested on: chloroquine-sensitive NF54 strain of P. falciparum; experiment: In vitro antimalarial semiautomated microdilution assay ([3H]-hypoxanthine incorporation), NF54 strain; format: cell-based, Plasmodium falciparum; details: Plasmodium falciparum, NF54, 72 h, read-out: IC50 (ng/ml) NF54, chloroquine-sensitive NF54 strain, 72 h incubation
Procedure, shortened: as §1

[3] = tested on: ANKA strain of P. berghei; experiment: Single dose STI in vivo screen in infected mice; parameters: species or system Plasmodium berghei; details: for Survival (days) 10 mg/kg po: single 10 mg/kg po in 3% ethanol and 7% Tween 80; for Survival (days) 10 mg/kg po / Survival (days) 10 mg/kg SSV po / Survival (days) 10 mg/kg sc: untreated 6-7 days; for Activity (%) 10 mg/kg po: single 10 mg/kg po in 3% ethanol and 7% Tween 80 on day 1 post-infection; for Activity (%) 10 mg/kg po / Activity (%) 10 mg/kg SSV po / Activity (%) 10 mg/kg sc: percent reduction in parasitemia on day 3; for Survival (days) 10 mg/kg SSV po: single 10 mg/kg po in SSV; for Activity (%) 10 mg/kg SSV po: single 10 mg/kg po in standard suspending vehicle (SSV) on day 1 post-infection; for Survival (days) 10 mg/kg sc: single 10 mg/kg sc in 3% ethanol and 7% Tween 80; for Activity (%) 10 mg/kg sc: single 10 mg/kg sc in 3% ethanol and 7% Tween 80 on day 1 post-infection
P. berghei ANKA strain = experiment: Onset of action and recrudescence experiment, single 100 mg/kg po; format: in vivo, Plasmodium berghei; details: single 100 mg/kg po (SSV) on day +3 post-infection; recrudescence = >5% parasitemia; followed up to 60 days; groups of five
Description: The onset of drug action was determined after a single fixed dose of 100 mg/kg (SSV vehicle) po to groups of five animals on day +3 post-infection (day 0).
Moro NMRI male mice (Fu Albino specific pathogen free) weighing 18±2 g were infected intravenously (i.v.) with 2×10^7 P. berghei ANKA strain-infected erythrocytes from donor mice on day 0 of the experiment. From donor mice with circa 30% parasitemia, heparinized blood was taken and diluted in physiological saline to 10^8 parasitized erythrocytes per ml. An aliquot (0.2 ml) of this suspension was injected i.v. into experimental and control groups of mice. […] Throughout the experiments, mice were kept in groups of three or five animals in Makrolon type II cages in an air-conditioned animal room at 22 to 23° C.

[4] = tested on: Schistosoma mansoni adult worms (49-day-old); experiment: Effect on adult schistosomes (49-day-old) in infected mice; format: in vivo; details: for % reduction of adult worms growth at day 49 after per os application of 400 mg/kg, TWR (%) / Adult worms day 49, per os 400 mg/kg, DEAD WORM (%): single 400 mg/kg per os
Description: Mice were infected with 100 Schistosoma mansoni cercariae on day 49 post-treatment. Each group was treated per os with OZ compounds at single doses of 200, 400, and 600 mg/kg. Untreated mice served as the control. All groups were killed 4 weeks after treatment and the liver and intestine were removed and separated. The liver and intestine were compressed and alive male and female worms could be seen and counted.

[5] = tested on: ANKA strain of Plasmodium berghei; experiment: Single dose ED50/ED90/ED99 determination in infected mice; format: in vivo; details: single dose po in SSV on day 1 post-infection, parasitemia day 3, nonlinear fitting; for ED50: Plasmodium berghei, po
Description: In the single dose ED50/ED98/ED99 determinations, Moro SPF or NMRI mice (group of three) infected with the ANKA strain of Plasmodium berghei were treated on day one post-infection. […] The SSV consists of 0.5% w/v CMC, 0.5% v/v benzyl alcohol, 0.4% v/v Tween 80, and 0.9% w/v sodium chloride in water. Antimalarial activity was measured by percent reduction in parasitemia on day three post-infection. The ED50/ED90 values were calculated by nonlinear fitting.
The ED50, ED90, and ED99 values were calculated by non-linear fitting with statistical program and were expressed in mg/kg.

[6] = tested on: Schistosoma mansoni 21-day-old schistosomules; experiment: Effect on 21-day-old schistosomules in infected mice; format: in vivo; details: single 200 mg/kg per os, 21-day-old schistosomules; for % reduction of schistosomule growth at day 21 after per os application of 200 mg/kg, FWR (%): female worm reduction rate; for % reduction of schistosomule growth at day 21 after per os application of 200 mg/kg, TWR (%): total worm reduction rate
Description: Mice were infected with 100 Schistosoma mansoni cercariae on day 21 post-treatment. Each group was treated per os with trioxolanes at a single dose of 200 mg/kg. […] All groups were killed 4 weeks after treatment and the liver and intestine were removed and separated. The liver and intestine were compressed and alive male and female worms could be seen and counted. The effect of the compounds was evaluated by mean total and female worm burden.

[7] = 49-day-old adults, total worm reduction rate
[8] = percentage of dead worm in the liver

Row | Structure (SMILES) | IC50 [1] | IC50 [2] | Survival (days) 10 mg/kg po [3] | Activity (%) 10 mg/kg po [3] | Survival (days) 10 mg/kg SSV po [3] | Activity (%) 10 mg/kg SSV po [3] | Survival (days) 10 mg/kg sc [3] | Activity (%) 10 mg/kg sc [3] | Time of Recrudescence (P. berghei ANKA strain) | % reduction of adult worms growth at day 49 after per os application of 400 mg/kg, TWR (%) [4, 7] | Adult worms day 49, per os 400 mg/kg, DEAD WORM (%) [4, 8] | ED50 [5] | ED90 [5] | ED99 [5] | % reduction of schistosomule growth at day 21 after per os application of 200 mg/kg, FWR (%) [6] | % reduction of schistosomule growth at day 21 after per os application of 200 mg/kg, TWR (%) [6] | % reduction of adult worms growth at day 49 after per os application of 200 mg/kg, TWR (%) ([4]; single 200 mg/kg per os, 49-day-old adults, total worm reduction rate) | Adult worms day 49, per os 200 mg/kg, DEAD WORM (%) ([4]; single 200 mg/kg per os, percentage of dead worm in the liver) | % reduction of adult worms growth at day 49 after per os application of 600 mg/kg, TWR (%) ([4]; single 600 mg/kg per os, 49-day-old adults, total worm reduction rate) | Adult worms day 49, per os 600 mg/kg, DEAD WORM (%) ([4]; single 600 mg/kg per os, percentage of dead worm in the liver)
1 | c1ccc(C[C@H]2CC[C@]3(CC2)OOC2(O3)C3CC4CC(C3)CC2C4)cc1 (some centres unmarked) [OZ156] | 2.1 ng/mL (≈ 5.92 nM) | 2.1 ng/mL (≈ 5.92 nM) | 17.0 days | 99.98% | 10.3 days | 98.8% | 19.7 days | 99.98% | > 60 days | 0% | 6% | 1.3 mg/kg | 2.6 mg/kg | 4.7 mg/kg |  |  |  |  |  | 
2 | CC1(C)COC2(CCC3(CC2)OOC2(O3)C3CC4CC(C3)CC2C4)OC1 (centres unmarked) [OZ11] |  |  |  |  |  |  |  |  | 22.2 days | 16% | 4% |  | 6.2 mg/kg | 8.2 mg/kg | 84% | 85% |  |  |  | 
3 | O=C(C[C@H]1CC[C@]2(CC1)OOC1(O2)C2CC3CC(C2)CC1C3)NO (some centres unmarked) [OZ175] | 1.4 ng/mL (≈ 4.15 nM) | 2 ng/mL (≈ 5.93 nM) | 10.0 days | 99.1% | 12.3 days | 97% | 8.7 days | 92% | 13.0 days |  |  | 3.5 mg/kg | 6.2 mg/kg | 9.9 mg/kg |  |  |  |  |  | 
4 | O=C(O)CC1CCC2(CC1)OOC1(O2)C2CC3CC(C2)CC1C3 (centres unmarked) [OZ78] |  |  |  |  |  |  |  |  | 11.2 days | 0% | 17% |  | 9.1 mg/kg | 17 mg/kg | 87% | 82% | 24% | 29% | 0% | 14%
